{"source": "patent US20090117598A1", "about": "“Method for identifying compounds that affect a transport of a protein through a membrane trafficking pathway” (priority 2004, published 2009)", "type_in_all_cases": "cell-based", "key": {"[1]": {"test_system": "human endothelin A receptor", "experiment": "ETAR (GPCR) internalization assay, ETAR-EGFP in stably transfected HEK 293 cells", "settings": "for receptor trafficking morphology observed (visual screen of primary hits): stimulation with 40 nM endothelin-1, FIG. 4", "excerpt": "A human endothelin A receptor cDNA clone in pCDNA3.1(−) (Invitrogen Carlsbad, USA) was excised via KpnI/HindIII and fused to the egfp coding sequence of the pEGFP-N1 vector (Clontech, Palo Alto USA) by splice overlap PCR using specific primers. The amplified fragment was digested via KpnI/EcoRV and ligated in the pCDNA3.1(−) vector digested with the same combination of restriction enzymes. The resulting pETAR-EGFP DNA was cloned, checked by sequencing and used for transfection of HEK 293 cells using standard protocols. A recombinant clone was obtained through several cycles of genetecin selection and limiting dilutions. For screening, cells were passed onto coverslip bottomed 96 well plates (Greiner; Longwood, USA, or Whatman; Brentford, UK) at a density of 4·10^3 cells/well for Hela and 2·10^4 cells/well for HEK293 cells, 48 hours in advance.\nFor the GPCR internalization assay, recombinant HEK cells grown were plated in 96 well plates and incubated overnight in DMEM/F12 containing 10% FBS. The plates were washed and the cells incubated for 120 min under tissue culture conditions with the compounds in 1% serum medium. The compound solutions were then exchanged for a solution with the same compound concentration and supplemented with 40 nM endothelin-1 and 10 μM Syto60. Cells were incubated for 120 min at 22° C. Plates were imaged by the Opera using 488/633 nm excitation, 3 μm focus height above the coverslip, 250 ms or 500 ms exposure and 510 nm (50 nm bandpass) or 680 (50 nm bandpass) filters, respectively. Typically, 5 image pairs (at 488 and 633 nm excitation) per well were acquired.\nGPCR translocation was evaluated using scripts within the Acapella script player software environment of the Opera. The script measured translocation of the ETAR-EGFP fusion protein from the plasma membrane into recycling endosomes. Cells were first located in the 633 nm excitation SYTO60 image. Red fluorescent nuclei were identified by thresholding and edge seeking and then segmented to create a mask. The number of cells was counted and the nuclei mask used to generate a new cytoplasmic mask. Subsequently, each cell was individually segmented and cells with at least one bright recycling endosome were identified. Image analysis was performed on- and offline and analyses were rejected if the cell count was beneath 100 per field of view.\nThe endothelin A GPCR internalization screen was carried out using a stably transfected HEK 293 cell line expressing a fusion protein between the ETAR and a c-terminal copy of the enhanced green fluorescent protein. […] This internalization event was used as the basis for measuring trafficking of the receptor by image analysis. Serum deprived cells were stimulated with endothelin-1 at several concentrations and simultaneously counterstained with DRAQ5 or SYTO60, which are long wavelength excitable DNA and nucleic acid stains, respectively. The cells were stimulated for 120 min at 22-23° C., then imaged on the Opera automated confocal imaging reader. Images of the GFP and red counterstain fluorescence were automatically recorded and used to determine the number of cells where internalization of the receptor had occurred.\nCells were pre-treated with 10 μM compound before stimulation with 40 nM endothelin-1 to ensure a uniform and robust internalization response for the receptor."}, "Hela cells": {"test_system": "Hela cells", "experiment": "fluid phase endocytosis assay (BODIPY-FL dextran internalization)", "settings": "for number of endosomes relative to the control: BODIPY-FL dextran 20 min at 37° C., FIG. 3b; for integrated fluorescence intensity per cell relative to the control: data not shown", "description": "For the fluid phase endocytosis assay, Hela cells in 96 well plates were washed and incubated for 120 min with the compounds in serum free buffered medium under tissue culture conditions. The medium was then replaced with serum-free buffered medium supplemented with 1 mg/ml BODIPY-FL-Dextran and 10 μM Syto60. Cells were incubated for 20 min at 37° C., then placed on a cooled block and washed extensively with ice cold phosphate buffered saline 10% w/v bovine serum albumin (Serva; Heidelberg, Germany). Plates were imaged by the Opera using 488/633 nm excitation, 3 μm focus height above the coverslip, 1000 ms or 500 ms exposure and 510 nm (50 nm bandpass) or 680 (50 nm bandpass) filters, respectively.\nFluid phase endocytosis was measured using custom written scripts in Metamorph. Cells were identified in the 633 nm excitation SYTO60 image, the nuclei segmented and cells counted. A mask was generated from this image and used to identify cells in overlay of the 488 nm BODIPY-FL dextran image, to create regions of interest around the cell borders and excise them from the image. Background was deducted from the processed BODIPY-FL dextran image that was thresholded to identify endosomes as individual regions of interest. Image pairs with less than 300 cells per field of view were rejected.\nA fluid phase endocytosis assay measured the internalization of green fluorescent 40 kDa BODIPY-FI dextran. Dextrans are ideal endocytotic markers for labelling endosomes and macropinosomes. In this assay, endosomes labelled with fluorescent dextran by internalization were readily identified with the Opera instrument (FIG. 2b). Dextran internalization satisfied all the classical prerequisites for an internalization assay—it was temperature dependent, arrested at 4° C. (FIG. 2a), and required a source of energy in the medium. Endocytosis was quantified by analysis of paired images of cells labelled with green dextran and the SYTO60 nuclear counter stain. The analysis was validated on cells that had internalized green fluorescent dextran for 20 min at 37° C. or at 4° C. (FIG. 2c).\nTo identify compounds affecting GPCR internalization and not affecting housekeeping endocytosis, the kinase and phosphatase inhibitor collection was screened against the fluid phase endocytosis assay (FIG. 3b). The effect of the compounds was evaluated. Four compounds (staurosporine, tyrphostin 9, AG-879, GF 109203×) were identified that reduced the number of endosomes (FIG. 3b) and the integrated intensity per cell relative to the control (data not shown)."}, "[2]": {"test_system": "ETAR internalization and fluid phase endocytosis", "experiment": "Overlap of the ETAR internalization and the fluid phase endocytosis screen", "settings": "FIG. 3b", "excerpt": "Overlap of the ETAR internalization and the fluid phase endocytosis screen was used to generate differential information from the two assays."}, "[3]": {"settings": "secondary screen 0.1 μM to 50 μM, FIG. 5"}}}
{"molecule": "CC[C@H](C)[C@H](NC(=O)[C@H](CC(=O)O)NC(=O)[C@H](CC(C)C)NC(=O)[C@H](Cc1c[nH]cn1)NC(=O)[C@@H]1CSSC[C@H](N)C(=O)N[C@@H](CO)C(=O)N[C@H]2CSSC[C@H](NC(=O)[C@H](CCC(=O)O)NC(=O)[C@H](CCCCN)NC(=O)[C@H](CC(=O)O)NC(=O)[C@H](CCSC)NC(=O)[C@H](CC(C)C)NC(=O)[C@H](CO)NC(=O)[C@H](CO)NC2=O)C(=O)N[C@@H](C(C)C)C(=O)N[C@@H](Cc2ccc(O)cc2)C(=O)N[C@@H](Cc2ccccc2)C(=O)N1)C(=O)N[C@H](C(=O)N[C@@H](Cc1c[nH]c2ccccc12)C(=O)O)[C@@H](C)CC", "note": "[endothelin-1]", "values": [{"measurement": "ETAR localization after endothelin-1 stimulation", "setting": "[1]", "value": "internalization of the fluorescent ETAR into an intracellular peri-centriolar compartment"}, {"measurement": "EC50", "setting": "[1]; read-out: EC50 of endothelin stimulation (ETAR-EGFP internalization)", "value": 3.4, "unit": "nM"}]}
{"molecule": "O=c1c(-c2ccc(O)cc2)coc2cc(O)cc(O)c12", "note": "[genistein]", "values": [{"measurement": "number of endosomes relative to the control", "setting": "Hela cells", "value": "increased"}, {"measurement": "integrated fluorescence intensity per cell relative to the control", "setting": "Hela cells; BODIPY-FL dextran", "value": "significantly increased"}]}
{"molecule": "CN[C@@H]1C[C@H]2O[C@@](C)([C@@H]1OC)n1c3ccccc3c3c4c(c5c6ccccc6n2c5c31)C(=O)NC4", "note": "[staurosporine]", "values": [{"measurement": "comparison of the responses in the ETAR internalization and fluid phase endocytosis assays", "setting": "[2]", "value": "congruent in both assays"}, {"measurement": "receptor trafficking morphology observed (visual screen of primary hits)", "setting": "[1]; 10 μM compound", "value": "arrest of the receptor at the plasma membrane"}, {"measurement": "effective concentration for blocking GPCR internalization (secondary screen)", "setting": "[1]; [3]", "value": 100, "unit": "nM"}, {"measurement": "endosomal pixel intensity", "setting": "Hela cells; BODIPY-FL dextran", "value": "slightly increased"}, {"measurement": "number of endosomes relative to the control", "setting": "Hela cells", "value": "reduced"}, {"measurement": "integrated fluorescence intensity per cell relative to the control", "setting": "Hela cells; BODIPY-FL dextran", "value": "reduced"}]}
{"molecule": "O=S(=O)(NCCNC/C=C/c1ccc(Br)cc1)c1cccc2cnccc12", "note": "[H-89]", "values": [{"measurement": "comparison of the responses in the ETAR internalization and fluid phase endocytosis assays", "setting": "[2]", "value": "large difference"}, {"measurement": "receptor trafficking morphology observed (visual screen of primary hits)", "setting": "[1]; 10 μM compound", "value": "enhanced accumulation in the recycling endosome"}]}
{"molecule": "Cn1cc(C2=C(c3cn(CCCSC(=N)N)c4ccccc34)C(=O)NC2=O)c2ccccc21", "note": "[Ro 31-8220]", "values": [{"measurement": "comparison of the responses in the ETAR internalization and fluid phase endocytosis assays", "setting": "[2]", "value": "large difference"}, {"measurement": "receptor trafficking morphology observed (visual screen of primary hits)", "setting": "[1]; 10 μM compound", "value": "arrest of the receptor at the plasma membrane"}]}
{"molecule": "CN(C)CCCn1cc(C2=C(c3c[nH]c4ccccc34)C(=O)NC2=O)c2ccccc21", "note": "[GF 109203X]", "values": [{"measurement": "comparison of the responses in the ETAR internalization and fluid phase endocytosis assays", "setting": "[2]", "value": "congruent in both assays"}, {"measurement": "number of endosomes relative to the control", "setting": "Hela cells", "value": "reduced"}, {"measurement": "integrated fluorescence intensity per cell relative to the control", "setting": "Hela cells; BODIPY-FL dextran", "value": "reduced"}]}
{"molecule": "O=C1Nc2ccc(I)cc2/C1=C/c1cc(Br)c(O)c(Br)c1", "note": "[GW 5074]", "values": [{"measurement": "comparison of the responses in the ETAR internalization and fluid phase endocytosis assays", "setting": "[2]", "value": "large difference"}, {"measurement": "hit classification in the primary screen", "setting": "[1]; 10 μM compound, 40 nM endothelin-1, FIG. 3b", "value": "partial hit"}, {"measurement": "concentration at which effect on GPCR internalization was seen (secondary screen)", "setting": "[1]; [3]", "value": 50, "unit": "µM"}, {"measurement": "effect on accumulation of the receptor in recycling endosomes", "setting": "[1]; versus untreated endothelin-1 stimulated control cells, FIG. 4d", "value": "delayed accumulation of the receptor in the recycling endosomes"}]}
{"molecule": "COC(=O)/C=C/c1cc(O)ccc1O", "note": "[erbstatin analogue]", "values": [{"measurement": "comparison of the responses in the ETAR internalization and fluid phase endocytosis assays", "setting": "[2]", "value": "large difference"}, {"measurement": "receptor trafficking morphology observed (visual screen of primary hits)", "setting": "[1]; 10 μM compound", "value": "arrest of the receptor in small vesicular bodies"}]}
{"molecule": "CC(C)(C)c1cc(/C=C(\\C#N)C(N)=S)cc(C(C)(C)C)c1O", "note": "[AG-879]", "values": [{"measurement": "number of endosomes relative to the control", "setting": "Hela cells", "value": "reduced"}, {"measurement": "integrated fluorescence intensity per cell relative to the control", "setting": "Hela cells; BODIPY-FL dextran", "value": "reduced"}]}
{"molecule": "CC(C)(C)c1cc(C=C(C#N)C#N)cc(C(C)(C)C)c1O", "note": "[tyrphostin 9]", "values": [{"measurement": "number of endosomes relative to the control", "setting": "Hela cells", "value": "reduced"}, {"measurement": "integrated fluorescence intensity per cell relative to the control", "setting": "Hela cells; BODIPY-FL dextran", "value": "reduced"}]}
